The target of this experiment is T1, human NCX1 (Homo sapiens, UniProt P32418).
T1 construct: expressed in transfected cells
The experiment is described as follows: NCX1 inhibition, forward mode (Ca2+ efflux out of cells), FLIPR calcium assay. It is filed as cell-based. The conditions noted are these: CHO cells stably expressing human NCX1, read-out: NCX1fw IC50. An excerpt: The sodium/calcium exchanger NCX1 can transport calcium ions and sodium ions through the cell membrane. The transport is an exchange of Ca^2+ and Na^+ in two directions depending on membrane potential and ion gradients. At the first direction, named “forward mode” or “calcium export mode”, Ca^2+ is transported out of the cell and Na^+ is transported into the cell. At the other direction, named “reverse mode” or “calcium import mode”, the transport directions are vice versa. The effect of the compounds of the invention on NCX1 was determined in CHO cells stably expressing human NCX1 (gene symbol SLC8A1; cf. WO 2009/115238). The assay is based on the monitoring of intracellular Ca^2+ concentrations using a calcium-sensitive fluorescence dye which is detected by means of a FLIPR device (Fluorimetric Imaging Plate Reader, Molecular Devices).
The assay is based on the monitoring of intracellular Ca^2+ concentrations using the PBX Calcium Assay Kit from BD (Becton, Dickinson and Company) with calcium indicator dye 51-9000177BKa (BD, 640177). CHO cells expressing NCX1 were loaded with the dye, and after a preincubation period with the test compound, Ionomycin (Calbiochem, 407950) was added. Ionomycin is an ionophor for Ca^2+ ions mediating an increase of intracellular Ca^2+ ions. Consequently, intracellular Ca^2+ ions are exchanged against extracellular Na^+ ions (Ca^2+ efflux, forward mode). The decrease of intracellular Ca^2+ ions was detected by measuring the fluorescence of the calcium indicator dye at a wavelength of 520 nm by a FLIPR device.
Briefly, similarly as for the reverse mode, for the forward mode transport assay 18000 cells per well were seeded into a 96 well microplate (Corning COSTAR 3904) and incubated overnight in culture medium (cf. above). A total volume of 100 μl medium per well was used. For the preparation of the FLIPR assay, the culture medium was removed from the plates and 100 μl of assay buffer (133.8 mM NaCl (Sigma, S5886); 4.7 mM KCl (Sigma, P3911); 1.25 mM MgCl2 (Merck, 1.05833.0250); 3.5 mM CaCl2(Merck, 1.02083.0250); 5 mM glucose (Sigma, G7021); 10 mM Hepes (Sigma, H4034); pH 7.4)) were added to each well in a washing step. Assay buffer was removed, and 100 μl of a solution of the test compound in assay buffer in different concentrations were added into the wells. Further, 100 μl of dye solution (0.09% (v/v) calcium indicator dye, 9.1% (v/v) signal enhancer (from PBX Calcium Assay Kit); in assay buffer) were added into each well. The plates were incubated in the dark at room temperature for 60 min. Meanwhile a 10 μM solution of Ionomycin in assay buffer (additionally containing 0.05% fetal calf serum (cf. above); 4° C.) was prepared and stored in the wells of a 96 well microplate (96 well microplate, polypropylene, U-shape (Greiner Bio-One, 650201)). The fluorescence monitoring was performed at 60 measuring points with measurement intervals of 2 sec. After the fifth measuring point, 50 μl of the Ionomycin solution were added to each well of the assay plate to give a final Ionomycin concentration of 2 μM. For the determination of the IC50 values the minimal fluorescence value was subtracted from the maximal fluorescence value for the fifteenth to fifty-fifth measuring points. The calculation of the IC50 values via the percentage inhibitions of Ca^2+ efflux out of cells (forward mode) effected by the test compound was performed in Biost@t Speed 2.0. “NCX1fw IC50” in Table 2 means the IC50 value for inhibition of NCX1 in forward mode (in μM (micromol/liter)).

`Cc1ccccc1C1CCc2cc(Oc3ncc(C(=O)NCCO)s3)ccc2O1` (centres unmarked) [Example 299, 2-(2-o-Tolyl-chroman-6-yloxy)-thiazole-5-carboxylic acid (2-hydroxy-ethyl)-amide]: the half-maximal inhibitory concentration (IC50) is 600 nM.

`Cc1ccccc1C1CCc2cc(Oc3ncc(CNC(=O)c4ccno4)s3)ccc2O1` (centres unmarked) [Example 329, Isoxazole-5-carboxylic acid [2-(2-o-tolyl-chroman-6-yloxy)-thiazol-5-ylmethyl]-amide]: the IC50 came out at 2500 nM.
